From BigSolDB 2.1

Cc1nc(C)c(C)nc1C
solubility (mole fraction)
Conditions	in acetone	in acetonitrile	in ethanol	in ethyl acetate	in isopropanol	in methanol	in methyl acetate	in n-butanol	in n-propanol
273.15 K	0.0459	0.0279	0.0644	0.0958	0.0534	0.111	0.0758	0.106	0.102
278.15 K	0.0592	0.034	0.0775	0.113	0.0702	0.119	0.094	0.126	0.114
283.15 K	0.0712	0.0405	0.0911	0.136	0.0814	0.143	0.112	0.152	0.138
288.15 K	0.0869	0.0503	0.11	0.16	0.0998	0.162	0.133	0.175	0.158
293.15 K	0.106	0.0587	0.128	0.181	0.115	0.194	0.156	0.205	0.185
298.15 K	0.132	0.0743	0.162	0.212	0.142	0.222	0.189	0.235	0.213
303.15 K	0.156	0.0888	0.186	0.244	0.166	0.262	0.216	0.262	0.245
308.15 K	0.185	0.115	0.216	0.284	0.196	0.296	0.254	0.302	0.3
313.15 K	0.209	0.147	0.255	0.34	0.249	0.342	0.291	0.351	0.347
